# Columns and labels:
# Fusarium (FFUSARGRAMI) = experiment: Seed treatment test for field corn and sweet corn, in-furrow Fusarium inoculation (Example 1); format: in vivo, Fusarium on corn variety H-8874RR; conditions: rates gai/100 kg: Apron XL 3LS 1, Maxim XL 3.5, CGA-301940 2.5, CAPTAN 55 + Allegiance-FL 2
# From the text: (§1) Seed Treatment Test for Field Corn and Sweet Corn
# [1] = tested on: natural disease pressure on corn variety N58-D1; experiment: Seed treatment test for field corn and sweet corn, no inoculation, natural disease pressure (Example 2); format: in vivo; conditions: rates gai/100 kg: Apron XL 3LS 1, Maxim XL 3.5, CGA-301940 2.5, CAPTAN 55 + Allegiance-FL 2
# From the text: as §1
structure (smiles),measurement,setting,value
"CO/C=C(/C(=O)OC)c1ccccc1Oc1cc(Oc2ccccc2C#N)ncn1 [CGA-301940, Azoxystrobin]",Stand Count percent increase (27 DAP),"Fusarium (FFUSARGRAMI); 27 DAP, vs Check (inoculated)",−10.3%
same,Stand Count (No Plants/Plot) 27 DAP,Fusarium (FFUSARGRAMI); 27 DAP,13.0b No Plants/Plot
same,% Vigor percent increase (47 DAP),"Fusarium (FFUSARGRAMI); 47 DAP, vs Check (inoculated)",6.6%
same,Stand Count percent increase (47 DAP),"Fusarium (FFUSARGRAMI); 47 DAP, vs Check (inoculated)",9.8%
same,% Vigor 47 DAP,Fusarium (FFUSARGRAMI); 47 DAP,80.0a %
same,Stand Count (No Plants/Plot) 47 DAP,Fusarium (FFUSARGRAMI); 47 DAP,42.3d No Plants/Plot
same,Stand Count percent increase (33 DAP),"[1]; 33 DAP, vs Check (non-inoculated)",4.5%
same,Stand Count (No Plants/Plot) 33 DAP,[1]; 33 DAP,46.5c No Plants/Plot
same,Stand Count percent increase (49 DAP),"[1]; 49 DAP, vs Check (non-inoculated)",6.0%
same,Stand Count (No Plants/Plot) 49 DAP,[1]; 49 DAP,52.8c No Plants/Plot
